≈ marks a conversion by molar mass, not a printed value. Where two headings read alike, the source gives them in different places.
What was measured:
[1] = test system: Stenotrophomonas maltophilia; experiment: Antibacterial susceptibility testing (MIC), S. maltophilia; format: cell-based; conditions: clinical isolate B32/1, read-out: MIC S. maltophilia B32/1
Description: (§1) Bacterial strains used in this study for antibacterial susceptibility testing (Table S5) were propagated using standard microbiological procedures. Minimal inhibitory concentrations (MICs) were determined following a standard double-dilution method. MICs were recorded as the lowest concentration of the compound where no visible growth was observed. After plating the dilutions around the MIC or growing them in fresh MH media, minimal bactericidal concentration (MBC) was recorded as the lowest concentration of the compound at which no colonies were formed or no growth was observed, respectively. For S. pneumoniae MICs were determined by adapting the standard double-dilution method to anaerobic conditions and of this microorganism (use of Todd Hewitt Yeast extract with 200 U/mL of catalase and continuous monitoring of growth).

Staphylococcus aureus = experiment: Antibacterial susceptibility testing (MIC/MBC), S. aureus; format: cell-based; conditions: Staphylococcus aureus
Description: (§2) Minimal inhibitory concentrations (MICs) were determined following a standard double-dilution method. […] For S. pneumoniae MICs were determined by adapting the standard double-dilution method to anaerobic conditions and of this microorganism (use of Todd Hewitt Yeast extract with 200 U/mL of catalase and continuous monitoring of growth).

Streptococcus pneumoniae = experiment: Antibacterial susceptibility testing (MIC), S. pneumoniae; format: cell-based; conditions: strain 49619
Description: as §1

[2] = test system: Staphylococcus epidermidis; experiment: Antibacterial susceptibility testing (MIC/MBC), S. epidermidis; format: cell-based; conditions: Staphylococcus epidermidis
Description: as §2

Pseudomonas aeruginosa = experiment: Antibacterial susceptibility testing (MIC), P. aeruginosa; format: cell-based; conditions: Pseudomonas aeruginosa, ATCC27853; strain ATCC 27853
Description: as §1

[3] = Solubility in kinase buffer; format: physicochemical; conditions: kinase buffer with 10% DMSO, pH 8.5, aqueous with cosolvent or surfactant or cyclodextrin, kinetic from dmso stock; kinase buffer in the presence of 10% DMSO; read-out: concentration above which not soluble / reduced solubility in kinase buffer
Acinetobacter baumannii = experiment: Antibacterial susceptibility testing (MIC), A. baumannii; format: cell-based
Description: as §1

E. coli PhoR (PhoR^E) = target: T1, E. coli PhoR (PhoR^E) (Escherichia coli, UniProt P08400); experiment: In vitro autophosphorylation kinase assay with γ-32P-ATP, PhoR^E; format: biochemical
T1 construct: The catalytic portion (DHp and CA domain) of E. coli PhoR (PhoR^E); made in house; host or cells: E. coli RIL
T1 sequence (P08400 210-425): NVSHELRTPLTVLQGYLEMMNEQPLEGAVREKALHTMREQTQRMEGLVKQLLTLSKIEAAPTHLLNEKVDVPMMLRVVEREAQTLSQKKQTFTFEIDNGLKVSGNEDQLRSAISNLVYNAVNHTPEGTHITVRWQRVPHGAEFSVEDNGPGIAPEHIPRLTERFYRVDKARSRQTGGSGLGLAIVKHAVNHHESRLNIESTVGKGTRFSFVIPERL
In short: (§3)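 Autophosphorylation, initiated with γ-32P-ATP (0.1 μCi/μl; 0.03–0.06 μM ATP final), quenched with SDS/EDTA sample buffer, resolved by SDS-PAGE and quantified by phosphor-imaging. ≈4 μM kinase, fragments up to 20 mM, pH 8.5 Tris buffer with Mg2+; DMSO-matched ligand-free controls.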

Hemolysis assay = format: cell-based; conditions: human
Description: Hemolytic activity against human erythrocytes taken from a healthy donor was measured as previously described. The hemolysis experiments were carried out in accordance with the guidelines of the United Arab Emirates University (UAEU) Research Ethics Review Board. All experimental protocols were approved by the Research Ethics Review Board of UAEU and informed consent was obtained from all donors.

S. pneumoniae WalK = target: T2, S. pneumoniae WalK (Streptococcus pneumoniae, UniProt Q8DPL8); experiment: In vitro autophosphorylation kinase assay with γ-32P-ATP, WalK; format: biochemical; conditions: autophosphorylation, one time point (30 sec), 10% DMSO; read-out: IC50 WalK
T2 construct: WalK (amino acids from 208 to 449); N-terminal His6-3C site of vector pOPINF (own knowledge of the vector); made in house; host or cells: E. coli RIL
T2 sequence (Q8DPL8 208-449): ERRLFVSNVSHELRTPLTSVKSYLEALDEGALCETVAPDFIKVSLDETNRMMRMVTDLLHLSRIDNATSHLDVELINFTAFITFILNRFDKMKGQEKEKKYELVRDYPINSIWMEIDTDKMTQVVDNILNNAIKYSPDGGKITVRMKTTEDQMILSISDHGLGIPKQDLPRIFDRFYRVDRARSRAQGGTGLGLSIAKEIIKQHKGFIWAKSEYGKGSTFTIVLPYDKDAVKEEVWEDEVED
In short: as §3

Klebsiella pneumoniae = experiment: Antibacterial susceptibility testing (MIC), K. pneumoniae; format: cell-based
Description: as §1

Streptococcus suis = experiment: Antibacterial susceptibility testing (MIC), S. suis; format: cell-based; conditions: Streptococcus suis, read-out: MIC Streptococcus suis 3881/S10, strain 3881/S10
Description: as §1

Escherichia coli = experiment: Antibacterial susceptibility testing (MIC/MBC), E. coli; format: cell-based
Description: as §2

Gram positive strains = conditions: cited from earlier work
S. epidermidis YycG = test system: S. epidermidis YycG; design: method as in PMID 24737057; conditions: read-out: IC50 S. epidermidis YycG (WalK) autophosphorylation; cited from earlier work
E. coli = test system: E. coli; design: method as in PMID 25561178; conditions: cited from earlier work

## Nc1nccc(Nc2ccc(Br)cc2)n1 [F1.8]
[1]
  MIC: > 500 µg/mL
Staphylococcus aureus; ATCC reference strain 25293, read-out: MIC S. aureus 25293
  MIC: 250 µg/mL (≈ 943 µM)
Staphylococcus aureus; DSM20231, strain DSM 20231, read-out: MBC S. aureus DSM 20231
  MBC: 250 µg/mL (≈ 943 µM)
Staphylococcus aureus; MRSA clinical isolate 127/08, read-out: MIC S. aureus 127/08
  MIC: 250 µg/mL (≈ 943 µM)
Staphylococcus aureus; MRSA clinical isolate 145/08, read-out: MIC S. aureus 145/08
  MIC: 250 µg/mL (≈ 943 µM)
Staphylococcus aureus; MRSA clinical isolate 274/08, read-out: MIC S. aureus 274/08
  MIC: 250 µg/mL (≈ 943 µM)
Staphylococcus aureus; MRSA, MRSA clinical isolate S908, read-out: MIC S. aureus S908
  MIC: 250 µg/mL (≈ 943 µM)
Staphylococcus aureus; MRSA, MRSA clinical isolate T4/6, read-out: MIC S. aureus T4/6
  MIC: 250 µg/mL (≈ 943 µM)
Staphylococcus aureus; MRSA, MRSA clinical isolate V4180, read-out: MIC S. aureus V4180
  MIC: 250 µg/mL (≈ 943 µM)
Staphylococcus aureus; MRSA, summary over strains, read-out: MICs for the S. aureus reference strains and the MRSA strains
  MIC: 125 to 250 µg/mL (≈ 471 to 943 µM)
Streptococcus pneumoniae
  MIC: 128 µg/mL (≈ 483 µM)
[2]; DSM20044, strain DSM 20044
  MBC: 125 µg/mL (≈ 471 µM)
[2]; clinical isolate T7/3, read-out: MIC S. epidermidis T7/3
  MIC: 31 µg/mL (≈ 117 µM)
[2]; clinical isolate T37/8, read-out: MIC S. epidermidis T37/8
  MIC: 500 µg/mL (≈ 1890 µM)
[2]; clinical isolate T6119, read-out: MIC S. epidermidis T6119
  MIC: 250 µg/mL (≈ 943 µM)
[2]; strain RP62A (biofilm producer), read-out: MIC S. epidermidis RP62A
  MIC: 500 µg/mL (≈ 1890 µM)
[2]; strain RP62A/1 (non-biofilm producer), read-out: MIC S. epidermidis RP62A/1
  MIC: 250 µg/mL (≈ 943 µM)
[2]; summary over strains, read-out: MICs for the S. epidermidis strains
  MIC: 31 to 500 µg/mL (≈ 117 to 1890 µM)
Pseudomonas aeruginosa
  MIC: 500 µg/mL (≈ 1890 µM)
[3]
  solubility: ≤ 1000 µM
Acinetobacter baumannii; MDR clinical isolate NM8, read-out: MIC A. baumannii NM8
  MIC: 125 µg/mL (≈ 471 µM)
Acinetobacter baumannii; MDR clinical isolate NM35, read-out: MIC A. baumannii NM35
  MIC: 125 µg/mL (≈ 471 µM)
Acinetobacter baumannii; MDR clinical isolate NM75, read-out: MIC A. baumannii NM75
  MIC: 250 µg/mL (≈ 943 µM)
Acinetobacter baumannii; MDR clinical isolate NM109, read-out: MIC A. baumannii NM109
  MIC: 125 µg/mL (≈ 471 µM)
Acinetobacter baumannii; MDR clinical isolate NM124, read-out: MIC A. baumannii NM124
  MIC: 125 µg/mL (≈ 471 µM)
Acinetobacter baumannii; summary over strains, read-out: MICs for A. baumannii strains
  MIC: 125 to 250 µg/mL (≈ 471 to 943 µM)
E. coli PhoR (PhoR^E); 2 mM, 30 sec, compared to negative control
  inhibition at 2000 µM: > 50%
E. coli PhoR (PhoR^E); autophosphorylation, one time point (30 sec), 10% DMSO, read-out: IC50 PhoR^E
  IC50: ≤ 1000 µM
Hemolysis assay
  HC50: > 500 µg/mL
S. pneumoniae WalK
  IC50: > 2000 µM
Klebsiella pneumoniae; Klebsiella pneumoniae, ATCC700603, strain ATCC 700603
  MIC: 125 to 250 µg/mL (≈ 471 to 943 µM)
Klebsiella pneumoniae; strain ATCC 700603
  MIC K. pneumoniae ATCC700603: 250 µg/mL (≈ 943 µM)
Streptococcus suis
  MIC: 250 µg/mL (≈ 943 µM)
Escherichia coli; Escherichia coli, ATCC25276, strain ATCC 25276, read-out: MIC E. coli ATCC 25276
  MIC: 125 to 250 µg/mL (≈ 471 to 943 µM)
Escherichia coli; Escherichia coli, strain CFT 073, read-out: MBC E. coli CFT 073
  MBC: 500 µg/mL (≈ 1890 µM)
Escherichia coli; Escherichia coli, strain CFT 073, read-out: MIC E. coli CFT 073
  MIC: < 250 µg/mL
Escherichia coli; Escherichia coli, summary over E. coli strains, read-out: antibacterial effects (MIC) against E. coli
  MIC: ≥ 250 µg/mL
Escherichia coli; strain ATCC 25276
  MIC E. coli ATCC 25276: 250 µg/mL (≈ 943 µM)
Escherichia coli; strain CFT 073
  MIC E. coli CFT 073: 250 µg/mL (≈ 943 µM)

## O=C(O)c1ccc(-c2ccc(/C=C3\S/C(=N\c4ccccc4)N(c4ccc(F)cc4)C3=O)s2)cc1 [H2-81]
Gram positive strains
  MIC Gram positive: ≥ 0.75 µg/mL
S. epidermidis YycG
  IC50: 24 µM

## teixobactin
E. coli
  antibacterial effect (MIC) against E. coli: 2 to 25 µg/mL
